{"source": "patent US7425548B2", "about": "“Materials and methods for immune system stimulation” (Variety Chidren's Hospital, priority 2004, dated 2008)", "key": {"[1]": {"test_system": "normal lymphocytes", "test": "Quantification of cytokine and chemokine synthesis by ELISA", "assay_type": "cell-based, human", "details": "at 100 pg/ml concentration"}, "[2]": {"test_system": "normal lymphocytes", "test": "Nitric oxide (NO) synthesis, Griess assay", "assay_type": "cell-based, human", "details": "RR1 0-100 μg/ml, 24 hours", "description": "Normal lymphocytes from healthy volunteers were treated with RR1 (0-100 μg) at 37° C. for 24 in a CO2 incubator in MEM medium. The supernatant medium was analyzed for the production of NO using assay kit from Active Motif, Carlsbad, Calif. and data analyzed using ANOVA (p=0.109).\nThe NO quantification was assayed by Nitric Oxide quantification kit (ACTIVE MOTIF, Carlsbad, Calif.) as per the manufacturer's protocol. Briefly, lymphocytes (10^6/ml) were incubated with varying concentrations of RR1 (0-100 μg/ml) for 24 hours in a nitrate free medium (DULBECO Minimum Essential Medium) at 37° C. The cell culture supernatant (70 μl) was pipetted into the wells of a 96-well plate along with 20 μl reconstituted co-factor and 10 μl nitrate reductase enzyme solution. The plate was shaken at 150 rpm on a plate shaker for 30 minutes at room temperature. Griess reagents A and B (50 μl each) were added into each well, allowed the color to develop for 20 minutes and the absorbance was taken at 540 nm with a reference wavelength of 620 nm in the BIO-RAD plate reader."}, "[3]": {"test_system": "RAW264.7 macrophages", "test": "Opsonized binding and phagocytosis of FITC-zymosan A bioparticles", "assay_type": "cell-based, mouse", "details": "500 μg/ml, 37° C., 1 hour", "description": "Monocytes were incubated with RR1 at 37° C. for 1 hour followed by FITC-labeled zymosan A bioparticles for another 1 hour at 37° C. The cells were washed and intracellular fluorescence measured in a Coulter Elite Flow cytometer.\nOpsonized binding and Phagocytosis. To determine the effect of RR1 and laminarin on opsonized binding and phagocytosis of zymosan A particles, RAW 264.7 cells were treated with RR1 or laminarin (0 and 500 μg/ml) in DMEM at 37° C. for 1 hour. This will ensure the release of opsonins and facilitate opsonic binding. The cells were washed with PBS twice and incubated with zymosan A-FITC bioparticles at a ratio of 25 particles/cell at 37° C. for 1 hour. The cells were suspended in PBS after removing the unbound zymosan particles by extensive washing with the medium, and the intracellular fluorescence analyzed in a Coulter Elite flow cytometer. The fluorescence intensity was expressed as percentage of control."}}}
{"substance": "(1,4)-α-D-glucan [RR1]", "values": [{"measurement": "synthesis of IL-1β", "setting": "[1]", "result": 1080, "unit": "pg/mL"}, {"measurement": "increase in NO", "setting": "[2]", "result": "≤ 21", "unit": "%"}, {"measurement": "inhibitory effect on opsonized binding and phagocytosis of zymosan A bioparticles", "setting": "[3]", "result": "failed to show any significant effect"}, {"measurement": "inhibitory effect on opsonized binding and phagocytosis of zymosan A bioparticles", "setting": "[3]; listed as RR-1", "result": "only little inhibitory effect"}]}
